Test results from PubChem BioAssay (NCI).
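In this assay, cells in 96-well plates receive the compound at five concentrations for 48 hours. Endpoints are linearly interpolated between the surrounding concentrations. TGI: total growth inhibition.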 Where a SMILES comes first, the peptide text is derived from it. [ ]: non-standard residue; d: D form. pGlu = O=C1CC[CH](C(=O)O)N1; Thz = O=C(O)[CH]1CSCN1

Assays:
Assay in all cases: DTP human tumour cell line panel, 48 h
[1] = tested on: HOP-62 NSCLC
[2] = tested on: K-562 leukemia
[3] = tested on: KM12 colon
[4] = tested on: M14 melanoma
[5] = tested on: MDA-N
[6] = tested on: RPMI-8226 leukemia
[7] = tested on: RXF 393 renal
[8] = tested on: SK-MEL-5 melanoma
[9] = tested on: SN12C renal
[10] = tested on: SNB-19 CNS
[11] = tested on: T-47D breast
[12] = tested on: UO-31 renal

Structure (SMILES)	TGI [1]	TGI [2]	TGI [3]	TGI [4]	TGI [5]	TGI [6]	TGI [7]	TGI [8]	TGI [9]	TGI [10]	TGI [11]	TGI [12]
COc1ccc(C(=O)/C=C/c2ccc(OCCCCCCCCCCOc3ccc(/C=C/C(=O)c4ccc(OC)cc4)cc3)cc2)cc1	> 100 µM	> 100 µM	> 100 µM	> 100 µM	> 100 µM	> 100 µM	> 100 µM	> 100 µM	> 100 µM	> 100 µM	> 100 µM	> 100 µM
CO/C=C(/C(=O)OC)[C@@H]1C[C@@H]1c1ccc2ccccc2c1	> 100 µM	> 100 µM	54.6 µM	71.9 µM	65.2 µM	41.9 µM	> 100 µM	30.3 µM	> 100 µM	> 100 µM	78.5 µM	> 100 µM
S=C(NCc1ccccc1)Nc1sc(=NCc2ccccc2)nc2sc3c(c12)CCN(N1CCc2c(sc4nc(=NCc5ccccc5)sc(NC(=S)NCc5ccccc5)c24)C1)C3	> 100 µM	> 100 µM	> 67.5 µM	> 65.4 µM	> 58.2 µM	> 100 µM	> 65.9 µM	> 100 µM	> 52.8 µM	> 64.2 µM	> 61.3 µM	> 60.8 µM
O=c1[nH]c(NCc2cccnc2)nc2nc[nH]c12	> 100 µM	> 100 µM	> 100 µM	> 100 µM	> 100 µM	> 100 µM	> 100 µM	> 100 µM	> 100 µM	> 100 µM	> 100 µM	> 100 µM
CC(NC(=O)C1CCC(=O)N1)C(=O)N1CCCC1C(N)=O (stereo not drawn) ([pGlu]-Ala-Pro-NH2; configuration not given here)	> 100 µM	> 100 µM	> 100 µM	> 100 µM	> 100 µM	> 100 µM	> 100 µM	> 100 µM	> 100 µM	> 100 µM	> 100 µM	> 100 µM
CC(=O)Nc1nc(C)c(S(=O)(=O)NC(=O)NC2NC(=O)NC2=O)s1 (stereo not drawn)	> 100 µM	> 100 µM	> 100 µM	> 100 µM	> 100 µM	> 100 µM	> 100 µM	> 100 µM	> 100 µM	> 100 µM	> 100 µM	> 100 µM
O=C(Cc1ccc2ccccc2c1)NCc1ccc(C(=O)NCCc2ccccc2)cc1	> 100 µM	> 100 µM	> 100 µM	> 100 µM	> 100 µM	> 100 µM	> 100 µM	> 100 µM	> 100 µM	> 100 µM	> 100 µM	> 100 µM
O=C1CCC(C(=O)N2CSCC2C(=O)O)N1 (stereo not drawn) ([pGlu]-[Thz]-OH; configuration not given here)	> 100 µM	> 100 µM	> 100 µM	> 100 µM	> 100 µM	> 100 µM	> 100 µM	> 100 µM	> 100 µM	> 100 µM	> 100 µM	> 100 µM
O=c1onc2n1-c1ccc(Cl)cc1C(=S)N1CSCC21 (stereo not drawn)	> 100 µM	> 100 µM	59.6 µM	28.8 µM	23.7 µM	> 100 µM	89.2 µM	> 100 µM	88.2 µM	52.5 µM	> 100 µM	> 100 µM
